Assay results published in patent publication US11926613B2, “Kinase inhibitors for the treatment of central and peripheral nervous system disorders” (UNIVERSITY OF MIAMI, priority 2017, dated 2024).
“Also recorded” adds a separate entry of the source. Where two headings read alike, the source gives them in different places.

Key:
[1] = system: neurons from hippocampi of E18 rat embryos; experiment: Neurite growth length (% NTL) in cultured E18 rat hippocampal neurons, 9-point dose response, 48 hours; format: cell-based
In short: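 % NTL comes from automated neurite tracing of βIII-tubulin-stained cells, with 200–300 or more neurons per condition. Compounds were given in a 9-point dilution series (20 μM to 0.078125 μM) for 48 h. Cells were trypsin-dissociated E18 rat hippocampal neurons plated at 1500/well on poly-D-lysine.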

Primary Neurons = experiment: HCS neurite outgrowth assay (High Content Screening with Primary Neurons); format: cell-based
[2] = system: corticospinal tract (CST) axons; experiment: Unilateral pyramidotomy model, in vivo axon growth (CST axon sprouting); details: mice, cortical injection, 2 mM final concentration, 5 weeks after unilateral pyramidotomy, N=2
Text: B) Graph represents averages of sprouting axon index across two animals treated with indicated compounds. Error bars indicate range of data points. N=2 animals (mice).
To assess the role of the compounds described herein in axon growth in vivo, the unilateral pyramidotomy model was employed, in which the pyramid in the ventral brainstem was severed unilaterally, rostral to the decussation of corticospinal tract (CST) axons. The animals then received bilateral cortical injections of a compound described herein (or DMSO) mixed 1:1 with AAV8-UbC-GFP or AAV8-UbC-TdTomato (5×10^13 GC/mL) for a final concentration of 2 mM (2 animals (mice) for each condition). […] Axon growth in the cervical spinal cord was assessed after 5 weeks. Cervical sections of the spinal cord were stained with antibodies against PKCγ (to assess completeness of lesion), and GFP (to amplify the signal from the virus). For analyses, GFP+ axons sprouting into the denervated gray matter were counted at 0, 500, 1000 μm lateral to the central canal, and normalized to the number of GFP+ fibers at the level of the brainstem (sprouting axon index).

primary CNS neurons = experiment: Neurite outgrowth in primary CNS neurons (FIG. 1, FIG. 2); format: cell-based; details: FIG. 2, combination of both inhibitors

For `COc1ccc(O)c(C(=O)c2ccc(C(=O)N[C@@H]3CNC[C@H]3NC(=O)c3ccncc3)cc2)c1F` [Example A16, N-[(3R,4R)-4-[4-(2-fluoro-6-hydroxy-3-methoxybenzoyl)benzamido]pyrrolidin-3-yl]pyridine-4-carboxamide], the “neurite growth length (% NTL)” value ([1]; 156 nM) was 117.55 % NTL, the “neurite growth length (% NTL)” value ([1]; 312 nM) was 125.17 % NTL and the “neurite growth length (% NTL)” value ([1]; 625 nM) was 144.99 % NTL. For the same molecule, the “neurite growth length (% NTL)” value ([1]; 1.25 μM) was 167.31 % NTL, the “neurite growth length (% NTL)” value ([1]; 2.5 μM) was 228.24 % NTL and the “neurite growth length (% NTL)” value ([1]; 5 μM) was 403.74 % NTL. For the same molecule, the “neurite growth length (% NTL)” value ([1]; 10 μM) was 573.73 % NTL, the “neurite growth length (% NTL)” value ([1]; 20 μM) was 660.88 % NTL and the activity at 0.078 µM ([1]; Rattus norvegicus, Neuron, 48 h, 78 nM) was 117%. For the same molecule, the EC50 (Primary Neurons) was 5.5 µM, the “CST axon sprouting (sprouting axon index)” value [2] was “nearly a two-fold increase in sprouting” and the “CST axon sprouting (sprouting axon index)” value ([2]; listed as A-16) was “promotes CST axon sprouting in the spinal cord”.

`O=C(N[C@@H]1CNC[C@H]1NC(=O)c1ccc(C(=O)c2cc(Br)ccc2O)cc1)c1ccncc1` [Example A88, N-((3R,4R)-4-(4-(5-bromo-2-hydroxybenzoyl)benzamido)pyrrolidin-3-yl)isonicotinamide] was tested, and the EC50 (Primary Neurons; Primary neuron) was 1.17 µM and the “CST axon sprouting (sprouting axon index)” value [2] was “promotes CST axon sprouting in the spinal cord; also recorded: nearly a two-fold increase in sprouting”.

In the case of `COc1ccc(O)c(C(=O)c2ccc(C(=O)O[C@@H]3CCCNC[C@H]3NC(=O)c3ccncc3)cc2)c1F` [Example A92, (3R,4R)-3-(isonicotinamido)azepan-4-yl 4-(2-fluoro-6-hydroxy-3-methoxybenzoyl)benzoate, reference compound], the EC50 (Primary Neurons; Primary neuron) is reported as 0.711 µM and the “CST axon sprouting (sprouting axon index)” value [2] is reported as “promotes CST axon sprouting in the spinal cord; also recorded: nearly a two-fold increase in sprouting”.

For `Cc1cncc2cccc(S(=O)(=O)N3CCCNC[C@@H]3C)c12` [Example H-1152], the “neurite outgrowth, ROCK inhibitor and S6K inhibitor combined” value (primary CNS neurons) was “synergistically promotes neurite outgrowth”.

In the case of `CCc1cncnc1N1CCN(Cc2nc3ccc(C(F)(F)F)cc3[nH]2)CC1` [PF-4708761], the “neurite outgrowth, ROCK inhibitor and S6K inhibitor combined” value (primary CNS neurons) is reported as “synergistically promotes neurite outgrowth”.

With “N[(3R,4R)-4-{4-[(2-fluoro-6-hydroxy-3- methoxyphenyl)methyl]benzamido}pyrrolidin- 3-yl]pyridine-4-carboxamide [Example A55]” the “neurite growth length (% NTL)” value ([1]; 78 nM) was 85.02 % NTL, the “neurite growth length (% NTL)” value ([1]; 156 nM) was 77.96 % NTL and the “neurite growth length (% NTL)” value ([1]; 312 nM) was 80.06 % NTL. For the same molecule, the “neurite growth length (% NTL)” value ([1]; 625 nM) was 76.79 % NTL, the “neurite growth length (% NTL)” value ([1]; 1.25 μM) was 81.96 % NTL and the “neurite growth length (% NTL)” value ([1]; 2.5 μM) was 90.13 % NTL. For the same molecule, the “neurite growth length (% NTL)” value ([1]; 5 μM) was 93.58 % NTL, the “neurite growth length (% NTL)” value ([1]; 10 μM) was 98.77 % NTL and the “neurite growth length (% NTL)” value ([1]; 20 μM) was 96.04 % NTL. For the same molecule, the EC50 (Primary Neurons) was 4.74 µM.
